Results reported in patent US12077503B2, “Substituted cyclic amides and their use as herbicides” (FMC CORPORATION, priority 2015, dated 2024).

Legend:
Type in all cases: in vivo
[1] = system: blackgrass (Alopecurus myosuroides); test: Test A postemergence; settings: Postemergence
Source text: (§1) Seeds of plant species selected from barnyardgrass (Echinochloa crus-galli), Kochia (Kochia scoparia), ragweed (common ragweed, Ambrosia elatior), ryegrass, Italian (Italian ryegrass, Lolium multiflorum), crabgrass, large (Digitaria sanguinalis), giant foxtail (Setaria faberii), green foxtail (Setaria viridis), morningglory (Ipomoea spp.), pigweed (Amaranthus retroflexus), velvetleaf (Abutilon theophrasti), wheat (Triticum aestivum), and corn (Zea mays) were planted into a blend of loam soil and sand and treated preemergence with a directed soil spray using test chemicals formulated in anon-phytotoxic solvent mixture which included a surfactant.
(§2) At the same time, plants selected from these crop and weed species and also blackgrass (Alopecurus myosuroides), and Galium (catchweed bedstraw, Galium aparine) were planted in pots containing the same blend of loam soil and sand and treated with postemergence applications of test chemicals formulated in the same manner. Plants ranged in height from 2 to 10 cm and were in the one- to two-leaf stage for the postemergence treatment. Treated plants and untreated controls were maintained in a greenhouse for approximately 10 d, after which time all treated plants were compared to untreated controls and visually evaluated for injury. Plant response ratings, summarized in Table A, are based on a 0 to 100 scale where 0 is no effect and 100 is complete control. A dash (-) response means no test result.

[2] = system: barnyardgrass (Echinochloa crus-galli); test: Test A postemergence; settings: Postemergence
Source text: as §1, §2

Kochia (Kochia scoparia) [3] = test: Test A postemergence; settings: Postemergence
Source text: as §1, §2

[4] = system: ragweed (common ragweed, Ambrosia elatior); test: Test A postemergence; settings: Postemergence
Source text: as §1, §2

[5] = system: giant foxtail (Setaria faberii); test: Test A postemergence; settings: Postemergence
Source text: as §1, §2

[6] = system: pigweed (Amaranthus retroflexus); test: Test A postemergence; settings: Postemergence
Source text: as §1, §2

[7] = system: wheat (Triticum aestivum); test: Test A postemergence; settings: Postemergence
Source text: as §1, §2

corn (Zea mays) = test: Test A postemergence; settings: Postemergence
Source text: as §1, §2

[8] = system: ryegrass, Italian (Italian ryegrass, Lolium multiflorum); test: Test A postemergence; settings: Postemergence
Source text: as §1, §2

[9] = system: ducksalad (Heteranthera limosa); test: Test B flooded paddy test; settings: Flood, 250 g ai/ha; visually evaluated after 13 to 15 d
Method: (§3) Plant species in the flooded paddy test selected from rice (Oryra sativa), sedge, umbrella (small-flower umbrella sedge, Cyperus difformis), ducksalad (Heteranthera limosa), and barnyardgrass (Echinochloa crus-galli) were grown to the 2-leaf stage for testing. At time of treatment, test pots were flooded to 3 cm above the soil surface, treated by application of test compounds directly to the paddy water, and then maintained at that water depth for the duration of the test. Treated plants and controls were maintained in a greenhouse for 13 to 15 d, after which time all species were compared to controls and visually evaluated. Plant response ratings, summarized in Table B, are based on a scale of 0 to 100 where 0 is no effect and 100 is complete control. A dash (-) response means no test result.

[10] = system: barnyardgrass (Echinochloa crus-galli); test: Test B flooded paddy test; settings: Flood, 250 g ai/ha; visually evaluated after 13 to 15 d
Method: as §3

[11] = system: sedge, umbrella (small-flower umbrella sedge, Cyperus difformis); test: Test B flooded paddy test; settings: Flood, 250 g ai/ha; visually evaluated after 13 to 15 d
Method: as §3

rice (Oryra sativa) = test: Test B flooded paddy test; settings: Flood, 250 g ai/ha; visually evaluated after 13 to 15 d
Method: as §3

[12] = system: barnyardgrass (Echinochloa crus-galli); test: Test A preemergence; settings: Preemergence
Source text: as §1, §2

Kochia (Kochia scoparia) [13] = test: Test A preemergence; settings: Preemergence
Source text: as §1, §2

[14] = system: ragweed (common ragweed, Ambrosia elatior); test: Test A preemergence; settings: Preemergence
Source text: as §1, §2

[15] = system: giant foxtail (Setaria faberii); test: Test A preemergence; settings: Preemergence
Source text: as §1, §2

[16] = system: pigweed (Amaranthus retroflexus); test: Test A preemergence; settings: Preemergence
Source text: as §1, §2

[17] = system: ryegrass, Italian (Italian ryegrass, Lolium multiflorum); test: Test A preemergence; settings: Preemergence
Source text: as §1, §2

[18] = 125 g ai/ha, visual rating about 10 d after treatment
[19] = 31 g ai/ha, 0 is no effect, 100 is complete control
[20] = 31 g ai/ha, 0 to 100 scale where 0 is no effect and 100 is complete control
[21] = 125 g ai/ha, 0 to 100 scale (0 no effect, 100 complete control)

CN1C[C@H](c2ccc3c(c2)OC(F)(F)O3)[C@@H](C(=O)Nc2cccc([N+](=O)[O-])c2)C1=O [Compound 1353]
Blackgrass plant response rating (0 to 100 scale) [1, 18]: 20 | Blackgrass plant response rating (0 to 100 scale) [1, 19]: 0 | Barnyardgrass plant response rating (0 to 100 scale, 0 no effect, 100 complete control) [2, 18]: 90 | Barnyardgrass plant response rating (0 to 100 scale) [2, 19]: 40 | Kochia plant response rating (0 to 100 scale) (Kochia (Kochia scoparia) [3]; [18]): 20 | Kochia plant response rating (0 to 100 scale) (Kochia (Kochia scoparia) [3]; [19]): 0 | Ragweed plant response rating (0 to 100 scale) [4, 18]: 0 | Ragweed plant response rating (0 to 100 scale) [4, 19]: 0 | Foxtail, Giant plant response rating (0 to 100 scale) [5, 18]: 70 | Foxtail, Giant plant response rating (0 to 100 scale) [5, 19]: 30 | Pigweed plant response rating (0 to 100 scale) [6, 18]: 20 | Pigweed plant response rating (0 to 100 scale) [6, 19]: 0 | Wheat plant response rating (0 to 100 scale) [7, 18]: 0 | Wheat plant response rating (0 to 100 scale) [7, 19]: 0 | Corn plant response rating (0 to 100 scale) (corn (Zea mays); [18]): 0 | Corn plant response rating (0 to 100 scale) (corn (Zea mays); [19]): 0 | Ryegrass, Italian plant response rating (0 to 100 scale) [8, 18]: 0 | Ryegrass, Italian plant response rating (0 to 100 scale) [8, 19]: 0 | Plant response rating, Ducksalad (0 to 100 scale where 0 is no effect and 100 is complete control) [9]: 40 | Plant response rating, Barnyardgrass (0 to 100 scale where 0 is no effect and 100 is complete control) [10]: 60 | Plant response rating, Sedge, Umbrella (0 to 100 scale where 0 is no effect and 100 is complete control) [11]: 0 | Plant response rating, Rice (0 to 100 scale where 0 is no effect and 100 is complete control) (rice (Oryra sativa)): 0 | Barnyardgrass plant response rating [12, 20]: 0 | Plant response rating, Barnyardgrass [12, 21]: 70 | Kochia plant response rating (Kochia (Kochia scoparia) [13]; [20]): 60 | Plant response rating, Kochia (Kochia (Kochia scoparia) [13]; [21]): 80 | Ragweed plant response rating [14, 20]: 40 | Plant response rating, Ragweed [14, 21]: 0 | Foxtail, Giant plant response rating [15, 20]: 80 | Plant response rating, Foxtail, Giant [15, 21]: 100 | Pigweed plant response rating [16, 20]: 0 | Plant response rating, Pigweed [16, 21]: 30 | Ryegrass, Italian plant response rating [17, 20]: 10 | Plant response rating, Ryegrass, Italian [17, 21]: 20
